What was measured:
[1] = target: T1, Protein kinase C zeta type (Homo sapiens) (UniProt Q05513); experiment: Inhibition of PKCzeta (unknown origin) at 50 nM by Z'LYTE screening method relative to control
T1 sequence (whole entry): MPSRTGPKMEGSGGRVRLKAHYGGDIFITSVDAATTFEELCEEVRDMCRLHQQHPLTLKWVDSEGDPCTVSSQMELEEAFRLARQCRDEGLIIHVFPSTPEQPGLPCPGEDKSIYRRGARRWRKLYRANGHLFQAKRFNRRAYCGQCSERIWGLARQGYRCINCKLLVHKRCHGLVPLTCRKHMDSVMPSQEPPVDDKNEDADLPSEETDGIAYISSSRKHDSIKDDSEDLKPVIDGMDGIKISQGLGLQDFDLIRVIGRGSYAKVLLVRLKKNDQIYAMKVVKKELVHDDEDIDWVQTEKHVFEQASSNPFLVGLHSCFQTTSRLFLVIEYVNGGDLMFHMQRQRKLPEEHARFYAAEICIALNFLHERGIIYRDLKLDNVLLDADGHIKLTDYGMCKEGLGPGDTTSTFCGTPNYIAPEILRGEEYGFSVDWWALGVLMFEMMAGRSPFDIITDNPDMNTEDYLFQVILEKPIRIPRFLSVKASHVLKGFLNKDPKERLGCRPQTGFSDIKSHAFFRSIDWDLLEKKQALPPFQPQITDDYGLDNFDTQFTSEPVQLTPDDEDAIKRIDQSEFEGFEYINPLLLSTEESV

[2] = target: Tyrosine-protein kinase Yes (Homo sapiens) (UniProt P07947); experiment: Inhibition of YES1 (unknown origin) at 50 nM by Z'LYTE screening method relative to control
Sequence of Tyrosine-protein kinase Yes (Homo sapiens) (P07947 2-543 limits assumed): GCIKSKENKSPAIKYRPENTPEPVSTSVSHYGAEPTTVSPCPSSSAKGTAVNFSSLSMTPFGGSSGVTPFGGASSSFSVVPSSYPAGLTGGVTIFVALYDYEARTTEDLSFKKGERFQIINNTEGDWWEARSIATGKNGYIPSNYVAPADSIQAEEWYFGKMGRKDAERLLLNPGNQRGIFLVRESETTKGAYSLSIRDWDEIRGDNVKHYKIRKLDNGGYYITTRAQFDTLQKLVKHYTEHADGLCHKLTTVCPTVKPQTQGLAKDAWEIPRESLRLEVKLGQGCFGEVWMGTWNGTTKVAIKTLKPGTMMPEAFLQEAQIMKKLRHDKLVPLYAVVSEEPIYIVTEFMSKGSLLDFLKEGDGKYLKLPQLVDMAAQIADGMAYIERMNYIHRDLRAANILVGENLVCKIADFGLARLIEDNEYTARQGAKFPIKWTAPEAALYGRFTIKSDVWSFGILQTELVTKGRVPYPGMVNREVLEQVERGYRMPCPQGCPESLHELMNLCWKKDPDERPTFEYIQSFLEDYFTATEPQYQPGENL

[3] = target: Dual specificity mitogen-activated protein kinase kinase 1 (Homo sapiens) (UniProt Q02750); experiment: Inhibition of MAP2K1 (unknown origin) at 50 nM by Z'LYTE screening method relative to control
Sequence of Dual specificity mitogen-activated protein kinase kinase 1 (Homo sapiens) (Q02750 whole entry): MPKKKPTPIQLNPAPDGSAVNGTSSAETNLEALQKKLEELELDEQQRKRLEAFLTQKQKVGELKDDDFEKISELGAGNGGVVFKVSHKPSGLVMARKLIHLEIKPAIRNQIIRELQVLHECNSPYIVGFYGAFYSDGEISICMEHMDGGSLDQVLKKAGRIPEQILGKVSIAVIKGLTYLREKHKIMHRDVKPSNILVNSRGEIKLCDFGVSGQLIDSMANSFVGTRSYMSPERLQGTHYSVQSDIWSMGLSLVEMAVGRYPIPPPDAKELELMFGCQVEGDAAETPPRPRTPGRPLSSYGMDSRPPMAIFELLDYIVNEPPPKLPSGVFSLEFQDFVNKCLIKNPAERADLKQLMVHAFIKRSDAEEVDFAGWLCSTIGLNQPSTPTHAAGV

[4] = target: T2, Aurora kinase C (Homo sapiens) (UniProt Q9UQB9); experiment: Inhibition of AURC (unknown origin) at 50 nM by Z'LYTE screening method relative to control
T2 sequence (whole entry): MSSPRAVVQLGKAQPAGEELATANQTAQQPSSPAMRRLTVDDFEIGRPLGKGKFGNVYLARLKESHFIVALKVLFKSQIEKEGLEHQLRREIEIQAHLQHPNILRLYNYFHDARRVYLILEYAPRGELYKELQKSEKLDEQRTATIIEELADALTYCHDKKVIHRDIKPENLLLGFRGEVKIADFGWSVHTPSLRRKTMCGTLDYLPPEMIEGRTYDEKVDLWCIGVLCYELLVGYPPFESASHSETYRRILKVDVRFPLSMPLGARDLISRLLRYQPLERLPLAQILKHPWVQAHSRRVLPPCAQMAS

[5] = target: CDK1/Cyclin A (Homo sapiens) (UniProt P06493+P20248); experiment: Inhibition of CDK1/CyclinA (unknown origin) at 50 nM by Z'LYTE screening method relative to control; format: protein-complex assay
Sequence of CDK1/Cyclin A (Homo sapiens) (P06493 whole entry, looked up): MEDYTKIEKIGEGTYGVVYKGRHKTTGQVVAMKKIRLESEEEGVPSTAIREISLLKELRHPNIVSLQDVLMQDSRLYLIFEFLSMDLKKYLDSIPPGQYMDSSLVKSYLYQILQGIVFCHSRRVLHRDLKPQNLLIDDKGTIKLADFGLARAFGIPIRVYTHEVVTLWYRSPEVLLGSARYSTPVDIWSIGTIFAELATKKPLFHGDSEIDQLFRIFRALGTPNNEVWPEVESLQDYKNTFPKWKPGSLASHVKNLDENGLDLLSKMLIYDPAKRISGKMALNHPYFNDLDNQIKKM
Sequence of CDK1/Cyclin A (Homo sapiens) (P20248 whole entry, looked up): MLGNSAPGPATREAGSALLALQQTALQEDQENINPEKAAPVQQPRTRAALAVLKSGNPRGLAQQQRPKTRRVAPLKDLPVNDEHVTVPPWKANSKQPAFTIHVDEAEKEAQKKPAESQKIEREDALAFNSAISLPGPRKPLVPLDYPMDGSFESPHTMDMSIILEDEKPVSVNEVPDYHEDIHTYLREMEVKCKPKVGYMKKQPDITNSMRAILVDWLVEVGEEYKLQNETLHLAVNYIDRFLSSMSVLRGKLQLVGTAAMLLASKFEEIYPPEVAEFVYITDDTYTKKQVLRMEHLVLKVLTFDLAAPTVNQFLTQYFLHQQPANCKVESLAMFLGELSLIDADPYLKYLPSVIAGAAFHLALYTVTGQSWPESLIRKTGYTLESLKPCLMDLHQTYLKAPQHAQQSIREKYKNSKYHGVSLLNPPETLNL

[6] = target: Tyrosine-protein kinase ABL1 (Homo sapiens) (UniProt P00519); experiment: Inhibition of ABL1 (unknown origin) at 50 nM by Z'LYTE screening method relative to control
Sequence of Tyrosine-protein kinase ABL1 (Homo sapiens) (P00519 whole entry): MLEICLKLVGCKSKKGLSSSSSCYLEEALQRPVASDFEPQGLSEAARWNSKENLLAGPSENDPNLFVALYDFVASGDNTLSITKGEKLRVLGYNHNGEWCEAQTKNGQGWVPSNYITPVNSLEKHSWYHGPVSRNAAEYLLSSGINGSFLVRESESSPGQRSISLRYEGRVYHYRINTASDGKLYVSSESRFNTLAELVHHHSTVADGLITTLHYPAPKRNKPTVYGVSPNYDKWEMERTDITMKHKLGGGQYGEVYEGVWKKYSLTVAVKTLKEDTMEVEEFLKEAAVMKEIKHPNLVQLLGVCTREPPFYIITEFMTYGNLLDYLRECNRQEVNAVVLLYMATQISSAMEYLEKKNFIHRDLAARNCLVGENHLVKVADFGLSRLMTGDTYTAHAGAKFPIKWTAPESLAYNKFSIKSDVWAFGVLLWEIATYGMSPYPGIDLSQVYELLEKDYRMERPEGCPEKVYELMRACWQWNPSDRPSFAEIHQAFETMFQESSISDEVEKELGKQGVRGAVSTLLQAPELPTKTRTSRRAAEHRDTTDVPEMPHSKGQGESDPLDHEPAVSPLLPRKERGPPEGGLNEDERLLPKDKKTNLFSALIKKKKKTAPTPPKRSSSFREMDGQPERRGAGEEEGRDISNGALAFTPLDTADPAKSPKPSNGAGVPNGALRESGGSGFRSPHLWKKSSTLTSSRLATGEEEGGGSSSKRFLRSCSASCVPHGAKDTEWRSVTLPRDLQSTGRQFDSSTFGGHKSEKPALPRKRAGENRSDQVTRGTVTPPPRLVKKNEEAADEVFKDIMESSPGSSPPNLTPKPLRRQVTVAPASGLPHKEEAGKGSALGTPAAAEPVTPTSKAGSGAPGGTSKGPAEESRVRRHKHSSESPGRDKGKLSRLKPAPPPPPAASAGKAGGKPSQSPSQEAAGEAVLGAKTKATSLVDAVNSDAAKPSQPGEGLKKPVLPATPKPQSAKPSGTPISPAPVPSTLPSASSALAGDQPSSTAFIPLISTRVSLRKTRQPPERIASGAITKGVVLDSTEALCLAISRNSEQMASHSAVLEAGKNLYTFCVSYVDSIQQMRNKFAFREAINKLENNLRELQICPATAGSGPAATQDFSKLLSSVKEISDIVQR

[7] = target: T3, Serine/threonine-protein kinase D3 (Homo sapiens) (UniProt O94806); experiment: Inhibition of PKCnu (unknown origin) at 50 nM by Z'LYTE screening method relative to control
T3 sequence (whole entry): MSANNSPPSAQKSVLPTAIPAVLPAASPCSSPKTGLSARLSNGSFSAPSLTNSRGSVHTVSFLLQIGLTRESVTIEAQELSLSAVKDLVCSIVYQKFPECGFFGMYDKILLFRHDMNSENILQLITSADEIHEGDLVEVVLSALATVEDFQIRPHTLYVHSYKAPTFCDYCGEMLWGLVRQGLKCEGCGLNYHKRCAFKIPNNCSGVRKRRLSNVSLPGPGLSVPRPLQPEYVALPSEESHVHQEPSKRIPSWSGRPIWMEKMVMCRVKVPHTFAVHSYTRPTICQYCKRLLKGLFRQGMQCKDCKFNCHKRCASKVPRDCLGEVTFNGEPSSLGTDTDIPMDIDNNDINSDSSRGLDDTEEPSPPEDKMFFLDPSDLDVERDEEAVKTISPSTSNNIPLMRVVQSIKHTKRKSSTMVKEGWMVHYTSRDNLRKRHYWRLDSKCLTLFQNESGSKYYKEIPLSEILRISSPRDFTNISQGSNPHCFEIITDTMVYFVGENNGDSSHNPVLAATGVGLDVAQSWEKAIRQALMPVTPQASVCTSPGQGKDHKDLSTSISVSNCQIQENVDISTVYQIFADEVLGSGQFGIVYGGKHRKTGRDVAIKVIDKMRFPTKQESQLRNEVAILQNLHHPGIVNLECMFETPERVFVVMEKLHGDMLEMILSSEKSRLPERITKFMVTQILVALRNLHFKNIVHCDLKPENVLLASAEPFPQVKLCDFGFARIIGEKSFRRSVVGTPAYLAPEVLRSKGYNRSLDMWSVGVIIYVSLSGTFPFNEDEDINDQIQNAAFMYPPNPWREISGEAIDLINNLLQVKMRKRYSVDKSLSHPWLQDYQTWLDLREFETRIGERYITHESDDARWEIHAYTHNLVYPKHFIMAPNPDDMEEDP

[8] = target: Cyclin-dependent kinase 5/CDK5 activator 1 (Homo sapiens) (UniProt Q00535+Q15078); experiment: Inhibition of CDK5/p35 (unknown origin) at 50 nM by Z'LYTE screening method relative to control; format: protein-complex assay
Sequence of Cyclin-dependent kinase 5/CDK5 activator 1 (Homo sapiens) (Q00535 whole entry): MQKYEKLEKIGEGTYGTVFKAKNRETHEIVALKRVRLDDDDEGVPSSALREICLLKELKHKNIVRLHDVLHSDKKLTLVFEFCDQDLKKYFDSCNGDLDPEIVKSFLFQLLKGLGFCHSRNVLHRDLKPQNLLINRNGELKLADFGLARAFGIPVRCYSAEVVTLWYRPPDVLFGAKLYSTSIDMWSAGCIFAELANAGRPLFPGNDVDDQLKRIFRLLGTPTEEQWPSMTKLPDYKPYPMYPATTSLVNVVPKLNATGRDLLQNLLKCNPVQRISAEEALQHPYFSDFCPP
Sequence of Cyclin-dependent kinase 5/CDK5 activator 1 (Homo sapiens) (Q15078 99-307 partner limits assumed): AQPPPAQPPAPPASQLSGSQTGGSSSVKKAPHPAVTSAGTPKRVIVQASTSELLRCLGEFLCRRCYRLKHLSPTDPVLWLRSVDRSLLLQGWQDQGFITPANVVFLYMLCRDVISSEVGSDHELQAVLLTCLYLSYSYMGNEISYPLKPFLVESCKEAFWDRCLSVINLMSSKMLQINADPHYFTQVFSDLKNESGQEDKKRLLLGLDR

[9] = target: T4, Serine/threonine-protein kinase Chk1 (Homo sapiens) (UniProt O14757); experiment: Inhibition of CHK1 (unknown origin) at 50 nM by Z'LYTE screening method relative to control
T4 sequence (whole entry): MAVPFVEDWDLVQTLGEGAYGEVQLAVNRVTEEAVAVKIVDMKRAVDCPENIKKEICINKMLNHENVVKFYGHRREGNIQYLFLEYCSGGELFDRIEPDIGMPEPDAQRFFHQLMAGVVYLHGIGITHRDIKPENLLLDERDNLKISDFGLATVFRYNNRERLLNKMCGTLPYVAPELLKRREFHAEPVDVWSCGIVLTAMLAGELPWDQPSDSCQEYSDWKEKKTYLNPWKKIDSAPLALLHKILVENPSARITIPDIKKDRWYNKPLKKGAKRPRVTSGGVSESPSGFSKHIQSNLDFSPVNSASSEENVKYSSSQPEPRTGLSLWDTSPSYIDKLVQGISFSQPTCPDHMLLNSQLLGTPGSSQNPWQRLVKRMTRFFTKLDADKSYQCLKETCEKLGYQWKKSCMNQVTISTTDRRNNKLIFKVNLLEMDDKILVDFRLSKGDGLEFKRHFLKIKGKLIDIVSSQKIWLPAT

[10] = target: Tyrosine-protein kinase Lck (Homo sapiens) (UniProt P06239); experiment: Inhibition of LCK (unknown origin) at 50 nM by Z'LYTE screening method relative to control
Sequence of Tyrosine-protein kinase Lck (Homo sapiens) (P06239 2-509 limits assumed): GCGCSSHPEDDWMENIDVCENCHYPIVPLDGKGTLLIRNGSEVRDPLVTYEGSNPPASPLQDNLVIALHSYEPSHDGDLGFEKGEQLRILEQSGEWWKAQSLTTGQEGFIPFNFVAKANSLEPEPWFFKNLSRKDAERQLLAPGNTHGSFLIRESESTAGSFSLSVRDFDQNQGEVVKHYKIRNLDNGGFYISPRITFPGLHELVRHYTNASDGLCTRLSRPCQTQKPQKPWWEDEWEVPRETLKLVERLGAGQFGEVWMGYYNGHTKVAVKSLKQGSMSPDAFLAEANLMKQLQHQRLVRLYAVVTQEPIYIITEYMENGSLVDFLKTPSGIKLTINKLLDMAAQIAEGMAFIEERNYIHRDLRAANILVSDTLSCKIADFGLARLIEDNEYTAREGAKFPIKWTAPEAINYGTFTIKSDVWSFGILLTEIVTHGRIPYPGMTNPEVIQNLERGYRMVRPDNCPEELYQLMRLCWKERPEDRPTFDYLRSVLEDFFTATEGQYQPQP

[11] = target: 3-phosphoinositide-dependent protein kinase 1 (Homo sapiens) (UniProt O15530); experiment: Inhibition of PDK1 (unknown origin) at 50 nM by Z'LYTE screening method relative to control
Sequence of 3-phosphoinositide-dependent protein kinase 1 (Homo sapiens) (O15530 whole entry, looked up): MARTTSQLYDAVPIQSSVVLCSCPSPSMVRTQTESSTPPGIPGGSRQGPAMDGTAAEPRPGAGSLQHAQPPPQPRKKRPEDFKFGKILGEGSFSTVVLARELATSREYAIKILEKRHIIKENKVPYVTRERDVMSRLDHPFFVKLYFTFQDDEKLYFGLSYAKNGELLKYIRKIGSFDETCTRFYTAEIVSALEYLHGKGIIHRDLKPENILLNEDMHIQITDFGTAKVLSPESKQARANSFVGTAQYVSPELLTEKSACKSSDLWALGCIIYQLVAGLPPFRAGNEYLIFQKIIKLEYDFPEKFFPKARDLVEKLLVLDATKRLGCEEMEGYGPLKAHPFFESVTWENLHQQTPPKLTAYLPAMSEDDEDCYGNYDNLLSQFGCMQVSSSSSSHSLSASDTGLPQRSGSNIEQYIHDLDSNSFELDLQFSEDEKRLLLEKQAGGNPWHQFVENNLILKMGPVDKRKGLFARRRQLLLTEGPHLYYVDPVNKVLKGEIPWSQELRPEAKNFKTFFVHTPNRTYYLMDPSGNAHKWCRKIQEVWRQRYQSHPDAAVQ

SMILES: CCN(CC)CCCC(C)Nc1nc(N2Cc3ccccc3C2=O)nc2[nH]cnc12 (stereo unspecified)
- inhibition [1]: 7%
- inhibition [2]: 9%
- inhibition [3]: 5%
- inhibition [4]: 10%
- inhibition [5]: 1%
- inhibition [6]: 1%
- inhibition [7]: 2%

SMILES: O=C1c2ccccc2CN1c1nc(NC2CCCCC2)c2nc[nH]c2n1
- inhibition [8]: 2%
- inhibition [9]: 0%
- inhibition [1]: 9%
- inhibition [10]: 7%
- inhibition [2]: 5%
- inhibition [3]: 4%
- inhibition [4]: 9%
- inhibition [5]: 2%
- inhibition [6]: 0%
- inhibition [11]: 0%
- inhibition [7]: 0%

SMILES: O=c1c2ccccc2[se]n1-c1nc(NC2CCCCC2)c2nc[nH]c2n1
- inhibition [8]: 2%
- inhibition [9]: 0%
- inhibition [1]: 9%
- inhibition [10]: 13%
- inhibition [2]: 38%
- inhibition [3]: 6%
- inhibition [4]: 13%
- inhibition [5]: 3%
- inhibition [6]: 1%
- inhibition [11]: 0%
- inhibition [7]: 0%

SMILES: O=C1c2ccccc2CN1c1nc(N[C@H]2CC[Se]C2)c2nc[nH]c2n1
- inhibition [1]: 6%
- inhibition [2]: 12%
- inhibition [3]: 3%
- inhibition [4]: 13%
- inhibition [5]: 1%
- inhibition [6]: 0%
- inhibition [7]: 3%

SMILES: O=c1c2ccccc2[se]n1-c1nc(N[C@@H]2C[C@H]3CC[C@@H]2C3)c2nc[nH]c2n1
- inhibition [1]: 7%
- inhibition [2]: 9%
- inhibition [3]: 2%
- inhibition [4]: 9%
- inhibition [5]: 1%
- inhibition [6]: 2%
- inhibition [7]: 1%

SMILES: O=c1c2ccccc2[se]n1-c1nc(Nc2ccccc2)c2nc[nH]c2n1
- inhibition [1]: 4%
- inhibition [2]: 8%
- inhibition [3]: 0%
- inhibition [4]: 6%
- inhibition [5]: 2%
- inhibition [6]: 0%
- inhibition [7]: 0%

SMILES: O=C1c2ccccc2CN1c1nc(NC2CCCC2)c2nc[nH]c2n1
- inhibition [1]: 6%
- inhibition [2]: 1%
- inhibition [3]: 1%
- inhibition [4]: 1%
- inhibition [5]: 0%
- inhibition [6]: 1%
- inhibition [7]: 4%

SMILES: O=c1c2ccccc2[se]n1-c1nc(N[C@H]2CCOC2)c2nc[nH]c2n1
- inhibition [1]: 2%
- inhibition [2]: 6%
- inhibition [3]: 2%
- inhibition [4]: 1%
- inhibition [5]: 1%
- inhibition [6]: 8%
- inhibition [7]: 3%

SMILES: CCCNc1nc(-n2[se]c3ccccc3c2=O)nc2[nH]cnc12
- inhibition [1]: 3%
- inhibition [2]: 3%
- inhibition [3]: 2%
- inhibition [4]: 6%
- inhibition [5]: 2%
- inhibition [6]: 0%
- inhibition [7]: 0%

SMILES: O=c1c2ccccc2[se]n1-c1nc(N[C@H]2CC[Se]C2)c2nc[nH]c2n1
- inhibition [8]: 1%
- inhibition [9]: 4%
- inhibition [1]: 12%
- inhibition [10]: 2%
- inhibition [2]: 10%
- inhibition [3]: 10%
- inhibition [4]: 0%
- inhibition [5]: 0%
- inhibition [6]: 1%
- inhibition [11]: 0%
- inhibition [7]: 6%

SMILES: C[C@@H]1[C@H]2C[C@@H](C[C@H]1Nc1nc(-n3[se]c4ccccc4c3=O)nc3[nH]cnc13)C2(C)C
- inhibition [1]: 7%
- inhibition [2]: 7%
- inhibition [3]: 5%
- inhibition [4]: 11%
- inhibition [5]: 2%
- inhibition [6]: 1%
- inhibition [7]: 1%

SMILES: CCN(CC)CCCC(C)Nc1nc(-n2[se]c3ccccc3c2=O)nc2[nH]cnc12 (stereo unspecified)
- inhibition [1]: 9%
- inhibition [2]: 15%
- inhibition [3]: 3%
- inhibition [4]: 7%
- inhibition [5]: 3%
- inhibition [6]: 11%
- inhibition [7]: 11%
